The source of these data is US20230150979A1, “AMIDE-DISUBSTITUTED PYRIDINE OR PYRIDAZINE COMPOUNDS” (BRISTOL-MYERS SQUIBB COMPANY, priority 2019, published 2023).

The test system of this experiment is IFNα-induced STAT phosphorylation (pSTAT5) in human whole blood, CD3 positive population. As to the kind of experiment: IFNα-Induced STAT Phosphorylation in Human Whole Blood. The format is cell-based. To be noted: 1 h incubation with compound, 1000 U/mL recombinant human IFNα A/D for 15 min, pSTAT5 (pY694) median fluorescence in CD3 positive cells, read-out: Human WB IFNα-Induced Stat Phosph. (IC50). As to the method:
IFNα-Induced STAT Phosphorylation in Human Whole Blood
After an hour long incubation with compound, human whole blood (drawn with either EDTA or ACD-A as anti-coagulant) was stimulated with 1000 U/mL recombinant human IFNα A/D (R&D Systems 11200-2) for 15 min. The stimulation was stopped by adding Fix/Lyse buffer (BD 558049). Cells were stained with a CD3 FITC antibody (BD 555916), washed, and permeabilized on ice using Perm III buffer (BD 558050). Cells were then stained with an Alexa-Fluor 647 pSTAT5 (pY694) antibody (BD 612599) for 30 min prior to analysis on the FACS Canto II. The amount of pSTAT5 expression was quantitated by median fluorescence intensity after gating on the CD3 positive population.

One may read the IC50 as the concentration at which inhibition is half-maximal. For the compound `[2H]C([2H])([2H])NC(=O)c1nnc(NC(=O)NC)cc1Nc1cccc(-c2ncn(C)n2)c1OC` [Example 45], the concentration for half-maximal inhibition (IC50) worked out at 80 nM.
For the compound `[2H]C([2H])([2H])NC(=O)c1nnc(NC(=O)N(C)C2CC2)cc1Nc1cccc(-c2ncn(C)n2)c1OC` [Example 46], the IC50 was 2210 nM.
With `[2H]C([2H])([2H])NC(=O)c1nnc(NC(=O)N(C)CC(=C)C)cc1Nc1cccc(-c2ncn(C)n2)c1OC` [Example 47], the IC50 was determined as 430 nM.
Next, `[2H]C([2H])([2H])NC(=O)c1nnc(NC(=O)NC(C)CC)cc1Nc1cccc(-c2ncn(C)n2)c1OC` (stereo not drawn) [Example 48]: 200 nM.
Consider `[2H]C([2H])([2H])NC(=O)c1nnc(NC(=O)N(C)Cc2ccco2)cc1Nc1cccc(-c2ncn(C)n2)c1OC` [Example 49], for which the IC50 came out at 190 nM.
Next, `[2H]C([2H])([2H])NC(=O)c1cnc(NC(=O)OCCC)cc1Nc1cccc(-c2ncn(C)n2)c1OC` [Example 50]: 150 nM.
For `COC(=O)Nc1cc(Nc2cccc(-c3noc(CN(C)S(C)(=O)=O)n3)c2OC)c(C(N)=O)nn1` [Example 51] the value was 90 nM; for `[2H]C([2H])([2H])NC(=O)c1nnc(NC(=O)OC)cc1Nc1ccccc1NS(C)(=O)=O` [Example 52], more than 10000 nM; for `[2H]C([2H])([2H])NC(=O)c1nnc(NC(=O)OC)cc1Nc1cccc(-c2ncc(C(=O)N(C)C)s2)c1OC` [Example 53], 840 nM.
For the compound `COC(=O)Nc1cc(Nc2cccc(-c3noc(CN4CCCCS4(=O)=O)n3)c2OC)c(C(N)=O)nn1` [Example 54], the concentration for half-maximal inhibition (IC50) was determined as 30 nM.
As to `[2H]C([2H])([2H])NC(=O)c1nnc(NC(=O)OC)cc1Nc1cccc(-c2ncc(C(=O)N3CCC3)s2)c1OC` [Example 55], the IC50 stood at 760 nM.
As to `COC(=O)Nc1cc(Nc2cccc(-c3noc(CN4CCOCC4)n3)c2OC)c(C(N)=O)nn1` [Example 56], the IC50 worked out at 110 nM.
In the case of `[2H]C([2H])([2H])NC(=O)c1nnc(NC(=O)OC)cc1Nc1cccc(-c2ncc(C(=O)N3CCC(N4CCN(CCO)CC4)CC3)s2)c1OC` [Example 57], the IC50 was determined as 250 nM.
For the compound `[2H]C([2H])([2H])NC(=O)c1nnc(NC(=O)OC)cc1Nc1cccc(-c2noc(CO)n2)c1OC` [Example 58], the IC50 was determined as 1860 nM.
`[2H]C([2H])([2H])NC(=O)c1nnc(NC(=O)OC)cc1Nc1cccc(-c2noc(CN3CCOCC3)n2)c1OC` [Example 59]: the concentration for half-maximal inhibition (IC50) came out at 290 nM.
On to `COC(=O)Nc1cc(Nc2cccc(-c3noc(CN4CCN(C(=O)OC)CC4)n3)c2OC)c(C(N)=O)nn1` [Example 60], for which the IC50 is 140 nM.
`[2H]C([2H])([2H])NC(=O)c1nnc(NC(=O)OC)cc1Nc1cccc(-c2noc(CN3CCCCS3(=O)=O)n2)c1OC` [Example 61]: the IC50 is 60 nM.
As to `[2H]C([2H])([2H])NC(=O)c1nnc(NC(=O)OC)cc1Nc1cccc(-c2noc(CN(C)S(C)(=O)=O)n2)c1OC` [Example 62], the IC50 came to 100 nM.
For `[2H]C([2H])([2H])NC(=O)c1nnc(NC(=O)OC)cc1Nc1cccc(-c2noc(C)n2)c1OC` [Example 63] the value was 970 nM; for `COC(=O)Nc1cc(Nc2cccc(-c3noc(CN4CCN(S(C)(=O)=O)CC4)n3)c2OC)c(C(N)=O)nn1` [Example 64], 100 nM; for `[2H]C([2H])([2H])NC(=O)c1nnc(NC(=O)OC)cc1Nc1cccc(-c2noc(CN3CCN(C(=O)OC)CC3)n2)c1OC` [Example 65], 330 nM.
Regarding `[2H]C([2H])([2H])NC(=O)c1nnc(NC(=O)OC)cc1Nc1cccc(-c2noc(CN3CCN(S(C)(=O)=O)CC3)n2)c1OC` [Example 66], the IC50 is 130 nM.
In the case of `COC(=O)Nc1cc(Nc2cccc(-c3noc(C)n3)c2OC)c(C(N)=O)nn1` [Example 67], the IC50 came out at 270 nM.
For the compound `[2H]C([2H])([2H])NC(=O)c1nnc(NC(=O)OC)cc1Nc1cccc(-c2noc(CN3CCCS3(=O)=O)n2)c1OC` [Example 68], the IC50 came to 200 nM.
With `[2H]C([2H])([2H])NC(=O)c1nnc(NC(=O)OC)cc1Nc1cccc(-c2noc(CCS(C)(=O)=O)n2)c1OC` [Example 69], the IC50 stood at 1030 nM.
In the case of `[2H]C([2H])([2H])NC(=O)c1nnc(NC(=O)OC)cc1Nc1cccc(-c2noc(CN3CCOC3=O)n2)c1OC` [Example 70], the half-maximal inhibitory concentration (IC50) worked out at 1150 nM.
Regarding `[2H]C([2H])([2H])NC(=O)c1cnc(NC(=O)OC)cc1Nc1cccc(-c2noc(CN3CCOCC3)n2)c1OC` [Example 71], the IC50 came to 300 nM.
Next, `[2H]C([2H])([2H])NC(=O)c1cnc(NC(=O)NCC)cc1Nc1cccc(-c2noc(C)n2)c1OC` [Example 72]: 140 nM; `[2H]C([2H])([2H])NC(=O)c1cnc(NC(=O)OC)cc1Nc1cccc(-c2noc(C)n2)c1OC` [Example 73]: 770 nM.
As to `[2H]C([2H])([2H])NC(=O)c1cnc(NC(=O)NC)cc1Nc1cccc(-c2noc(C)n2)c1OC` [Example 74], the IC50 came to 210 nM.
`[2H]C([2H])([2H])NC(=O)c1nnc(NC(=O)NCCN(C)C)cc1Nc1cccc(-c2ncn(C)n2)c1OC` [Example 75]: the IC50 came to 470 nM.
For `[2H]C([2H])([2H])NC(=O)c1cnc(NC(=O)NCCOC)cc1Nc1cccc(-c2noc(C)n2)c1OC` [Example 76], the IC50 worked out at 160 nM.
As to `[2H]C([2H])([2H])NC(=O)c1nnc(NC(=O)NC2CC2)cc1Nc1cccc(-c2noc(C)n2)c1OC` [Example 77], the IC50 is 210 nM.
